Our source for the Tm increase and Kd values is PMC5233616, “Structural and functional analyses of human DDX41 DEAD domain” (Protein & Cell, 2016).

Structures are written as SMILES.

For assay [1], the target named is T1, hDDX41 DEAD domain (Homo sapiens, UniProt Q9UJV9).
T1 construct: gene DDX41; isolated DEAD domain (domain 1; motifs Q to III); monomer; full length is 1-622
Kind of assay: thermal shift assay. The class given is binding. The conditions noted are these: unliganded Tm 41 °C.

Assay [2] concerns the target T1, hDDX41 DEAD domain. Kind of assay: isothermal titration calorimetry. The conditions noted are these: read-out: binding affinity.

T1 sequence (Q9UJV9 155-407 limits assumed): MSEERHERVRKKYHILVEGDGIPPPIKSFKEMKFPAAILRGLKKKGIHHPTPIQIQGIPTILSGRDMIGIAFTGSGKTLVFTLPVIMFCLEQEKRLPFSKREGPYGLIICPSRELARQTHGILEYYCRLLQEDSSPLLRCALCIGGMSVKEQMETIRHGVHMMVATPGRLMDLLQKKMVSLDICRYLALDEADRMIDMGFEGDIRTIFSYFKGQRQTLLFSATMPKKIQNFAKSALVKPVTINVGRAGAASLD

With `Nc1ncnc2c1ncn2[C@@H]1O[C@H](COP(=O)(O)OP(=O)(O)O)[C@@H](O)[C@H]1O` [ADP], the Tm increase on hDDX41 DEAD domain [1] is 2.2 °C. Besides, the Kd at hDDX41 DEAD domain [2] was found to be 31 µM.
The like results for `Nc1ncnc2c1ncn2[C@@H]1O[C@H](COP(=O)(O)O)[C@@H](O)[C@H]1O` [AMP] were, in that order, 3.9 °C and 61 µM.
